Experimental data: US12214015B2, “Use of c-type natriuretic peptide variants to treat osteoarthritis” (priority 2015, dated 2025)
Where no end group is shown, it is not given here.

How the values were obtained:
[1] = target: NEP (Homo sapiens, UniProt P08473); conditions: NEP digestion for 2.5 minutes in vitro; Cys6-Phe7 and Gly8-Leu9 slightly most labile
[2] = clearance by NEP and NPR-C; cited from earlier work
[3] = target: T1, NPR-B (Homo sapiens, UniProt P20594); conditions: read-out: affinity to NPR-B; cited from earlier work
T1 sequence (P20594 23-1047): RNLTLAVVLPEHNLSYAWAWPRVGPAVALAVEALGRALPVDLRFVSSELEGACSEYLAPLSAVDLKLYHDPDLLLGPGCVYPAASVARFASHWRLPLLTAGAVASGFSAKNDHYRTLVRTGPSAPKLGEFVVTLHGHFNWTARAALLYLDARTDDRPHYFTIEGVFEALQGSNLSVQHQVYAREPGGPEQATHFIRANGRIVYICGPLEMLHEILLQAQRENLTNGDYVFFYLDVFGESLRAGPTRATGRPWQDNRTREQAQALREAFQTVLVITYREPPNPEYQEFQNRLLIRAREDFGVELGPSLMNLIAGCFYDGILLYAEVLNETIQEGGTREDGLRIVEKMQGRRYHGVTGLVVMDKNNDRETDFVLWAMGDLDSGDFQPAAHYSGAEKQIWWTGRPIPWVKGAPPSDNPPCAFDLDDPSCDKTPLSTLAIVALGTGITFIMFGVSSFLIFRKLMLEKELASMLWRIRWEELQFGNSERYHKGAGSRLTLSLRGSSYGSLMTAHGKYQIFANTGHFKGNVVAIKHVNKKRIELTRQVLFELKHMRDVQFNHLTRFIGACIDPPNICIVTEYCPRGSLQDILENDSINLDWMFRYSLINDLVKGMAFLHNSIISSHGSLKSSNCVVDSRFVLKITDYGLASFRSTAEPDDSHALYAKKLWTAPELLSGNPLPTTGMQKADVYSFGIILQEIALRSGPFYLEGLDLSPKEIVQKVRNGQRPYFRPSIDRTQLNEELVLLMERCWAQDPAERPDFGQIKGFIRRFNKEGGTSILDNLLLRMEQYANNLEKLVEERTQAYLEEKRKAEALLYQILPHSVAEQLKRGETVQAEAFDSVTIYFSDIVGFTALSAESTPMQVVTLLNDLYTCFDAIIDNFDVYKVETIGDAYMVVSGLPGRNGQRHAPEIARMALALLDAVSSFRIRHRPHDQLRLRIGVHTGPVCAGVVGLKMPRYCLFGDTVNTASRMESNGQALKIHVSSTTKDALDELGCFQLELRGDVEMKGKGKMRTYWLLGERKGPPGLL

[4] = target: NPR-C (Homo sapiens, UniProt P17342); conditions: read-out: affinity to NPR-C; cited from earlier work
NPR-C, sequence (P17342 27-541, species assumed): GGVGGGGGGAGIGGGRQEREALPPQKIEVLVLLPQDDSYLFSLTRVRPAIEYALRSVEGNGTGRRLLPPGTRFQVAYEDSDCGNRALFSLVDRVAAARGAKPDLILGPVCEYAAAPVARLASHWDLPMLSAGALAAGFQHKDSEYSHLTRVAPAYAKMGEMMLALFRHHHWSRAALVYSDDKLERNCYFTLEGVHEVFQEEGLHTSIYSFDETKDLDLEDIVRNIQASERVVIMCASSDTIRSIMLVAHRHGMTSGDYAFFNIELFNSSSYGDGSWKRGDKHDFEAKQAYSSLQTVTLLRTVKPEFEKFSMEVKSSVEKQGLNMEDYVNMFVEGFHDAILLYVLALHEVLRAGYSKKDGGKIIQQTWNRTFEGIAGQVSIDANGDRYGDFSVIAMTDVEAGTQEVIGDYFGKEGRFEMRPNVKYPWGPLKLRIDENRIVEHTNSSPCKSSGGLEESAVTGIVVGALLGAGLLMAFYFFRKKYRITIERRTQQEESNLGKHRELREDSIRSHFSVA

[5] = target: T1, NPR-B; conditions: cited from earlier work
[6] = test system: medial meniscal tear-induced osteoarthritis; experiment: Rat medial meniscal tear osteoarthritis model, knee histopathology (Example 1, IA dosing from Day 7); type: in vivo; conditions: for cartilage degeneration in the tibia: 3x/week for 3 weeks from Day 7, vs control rats
Procedure: A unilateral medial meniscal tear in 275-300 gram rats will result in rapidly progressive cartilage degeneration—characterized by chondrocyte and proteoglycan loss, fibrillation, osteophyte formation, and chondrocyte cloning. This model is performed by transection of the medial collateral ligament just below its attachment to the meniscus so that when the joint space opens, the meniscus is reflected toward the femur. The meniscus is cut at its narrowest point (away from the ossicles) taking care not to damage the tibial surface and making sure that the resulting transection produces separate, freely movable anterior and posterior meniscus halves.
Progressive cartilage degenerative changes occur and by 3-6 weeks post-surgery, tibial cartilage degeneration may be focally severe on the outer ⅓ of the tibia with degenerative changes of lesser severity in the middle and inner ⅓. Osteophytes are ultimately quite large (medial tibia) and progressively increase in size. The model is progressive and results in total cartilage loss (to eburnated bone) in […] in virtually all rats, with lesions that are reasonably consistent. […] Due to the rapid progression of cartilage degeneration, protective effects are not always apparent in the outer ⅓ of the tibial cartilage, although zonal analysis may reveal effects of treatment in the middle and inner ⅓. Substantial subchondral and epiphyseal bone changes occur in the medial tibia subjacent to the areas of greatest lesion severity. These range in magnitude and type from increased basophilia of the calcified cartilage layer with small fractures into subchondral bone to overt collapse of articular cartilage into areas of bone resorption in the epiphysis with surrounding sclerosis of bone. Therefore, this model offers the opportunity to evaluate not only chondroprotective effects of agents but also bone preserving activities. The model is of relatively short duration and animals are very consistent in their response to the surgery.
(§1) This rat model was used to determine the effect of CNP variants on slowing or repairing cartilage damage in osteoarthritis, where the CNP is delivered in response to joint injury or trauma. In this model a tear was introduced into the meniscus to provoke joint injury which results in cartilage degeneration and osteoarthritis (Janusz et al., Osteoarthritis Cartilage, 10:785-791, 2002). Male Lewis rats received a unilateral medial meniscectomy on Day 0; administration of control vehicle or the CNP variant Gly-CNP-37 began on Day 7; and the animals were euthanized on Day 29 for histopathological analysis of the affected joints. […] Therapeutic efficacy was evaluated by gait analysis and histopathological examination of chondrocyte death/cartilage degeneration in the knee.
In particular, surgery animals were anesthetized with isoflurane and the right knee and lower leg area were prepared for surgery. For the meniscal tear, a skin incision was made over the medial aspect of the knee and the medial collateral ligament was transected after being exposed by blunt dissection. The medial meniscus was cut through the full thickness to simulate a complete tear and the wound closed. Ninety minutes (90 min) post-surgery, animals were treated with a dose of Acetaminophen (100 mg/kg, PO) in 1% CMC (2 mL/kg, 50 mg/mL). A follow-on dose was given 24 hours post-surgery (as needed).
For histopathological analysis the operated joints were harvested from the euthanized rats. Following 4-6 days in 5% formic acid decalcifier, the operated joints are cut into two approximately equal halves in the frontal plane and embedded in paraffin. Sections were cut from each operated right knee at approximately 160 μm steps and stained with toluidine blue. […]

[7] = test system: medial meniscal tear-induced osteoarthritis; experiment: Gait analysis in rat meniscal tear osteoarthritis model (Example 1); type: in vivo
Description: as §1
Gait analysis was performed by applying ink to the ventral surface of the foot and documenting weight bearing during movement (footprints) across paper. Rear feet of rats were placed in ink and then rats were placed on paper and allowed to walk the full length. Gait was scored visually using the criteria in Table 5 (descriptions refer to diseased/affected leg).

[8] = test system: medial meniscal tear-induced osteoarthritis; experiment: Rat medial meniscal tear osteoarthritis model, knee histopathology (Example 2, IA or SC); type: in vivo

NEP, sequence (P08473 whole entry): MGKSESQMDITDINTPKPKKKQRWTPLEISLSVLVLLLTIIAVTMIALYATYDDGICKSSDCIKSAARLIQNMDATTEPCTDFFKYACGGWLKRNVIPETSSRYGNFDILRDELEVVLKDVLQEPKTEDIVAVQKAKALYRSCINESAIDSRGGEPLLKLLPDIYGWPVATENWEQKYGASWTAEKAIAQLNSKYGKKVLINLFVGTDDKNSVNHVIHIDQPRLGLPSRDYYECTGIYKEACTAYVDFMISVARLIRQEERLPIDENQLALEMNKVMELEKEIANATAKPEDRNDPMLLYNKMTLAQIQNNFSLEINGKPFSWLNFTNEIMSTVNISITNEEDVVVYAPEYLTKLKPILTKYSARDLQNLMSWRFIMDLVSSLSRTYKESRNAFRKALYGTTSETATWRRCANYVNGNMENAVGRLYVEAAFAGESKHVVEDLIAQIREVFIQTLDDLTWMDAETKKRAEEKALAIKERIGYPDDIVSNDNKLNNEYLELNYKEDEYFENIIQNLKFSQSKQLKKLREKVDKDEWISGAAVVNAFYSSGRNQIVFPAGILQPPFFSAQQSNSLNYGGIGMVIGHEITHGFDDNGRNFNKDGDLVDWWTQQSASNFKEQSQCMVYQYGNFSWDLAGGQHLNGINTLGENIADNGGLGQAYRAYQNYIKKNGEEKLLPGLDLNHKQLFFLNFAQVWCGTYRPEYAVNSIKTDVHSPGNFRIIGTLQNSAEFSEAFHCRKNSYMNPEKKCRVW

CC[C@H](C)[C@@H]1NC(=O)[C@H](CCCNC(=N)N)NC(=O)[C@H](CC(=O)O)NC(=O)[C@H](CC(C)C)NC(=O)[C@H](CCCCN)NC(=O)[C@H](CC(C)C)NC(=O)CNC(=O)[C@H](Cc2ccccc2)NC(=O)[C@@H](NC(=O)CNC(=O)[C@H](CCCCN)NC(=O)[C@H](CO)NC(=O)[C@H](CC(C)C)NC(=O)CN)CSSC[C@@H](C(=O)O)NC(=O)CNC(=O)[C@H](CC(C)C)NC(=O)CNC(=O)[C@H](CO)NC(=O)[C@H](CCSC)NC(=O)[C@H](CO)NC(=O)CNC1=O [CNP-22]
hydrolysis of NEP cleavage sites [1]: all possible sites were unexpectedly hydrolyzed | half-life [2]: ~2.6 min | Kd [3]: 0.007 to 0.03 nM | Kd [4]: 0.011 to 0.14 nM

G19R mutation in CNP22: CNP22 with a G19R substitution (GLSKGCFGLKLDRIGSMSRLGC; ends and bridges not checked; cysteine pairing not given here; UniProt P23582 105-126, looked up, variant G19R)
NPR-B signaling activity [5]: does not result in a significant loss

GQEHPNARKYKGANKKGLSKGCFGLKLDRIGSMSGLGC (ends and bridges not checked; cysteine pairing not given here) [Gly-CNP-37]
medial growth plate thickness ([6]; 35.5 μg IA): a reduction in medial thickness, but not a significant reduction | Total Joint Score without Femur ([6]; 35.5 μg/dose IA): improved Total Joint Score without Femur, albeit to a lesser extent as compared to the higher dose | damage to the calcified cartilage and subchondral bone ([6]; 35.5 μg/dose IA): reduced damage to the calcified cartilage and subchondral bone, but to a lesser extent than the higher dose | cartilage degeneration in the tibia ([6]; 35.5 μg/dose IA): significant reduction | medial growth plate thickness ([6]; 110 μg IA): significantly reduced | Total Joint Score without Femur ([6]; 110 μg/dose IA): significantly reduced | cartilage degeneration in the tibia ([6]; 110 μg/dose IA): significant reduction | reduction of tibial osteophyte measurement ([6]; 110 μg/dose IA, p<0.05): approximately 24% | reduction of tibial osteophyte score ([6]; 110 μg/dose IA, p<0.05): approximately 34% | damage to the calcified cartilage and subchondral bone, score ([6]; 110 μg/dose IA, vehicle approximately 2.4): ~1.3 | improvement in substantial tibial cartilage degeneration (width) ([6]; Gly-CNP-37 treated animals (IA)): greater than 50% | depth ratio (lesion depth / total depth), medial tibia ([6]; Gly-CNP-37 treated groups (IA) vs vehicle): improved | Total Joint Score with Femur ([6]; both doses IA): decreases total joint score at both doses, but not to a significant level | medial tibial subchondral/epiphyseal trabecular bone thickening/sclerosis ([6]; both doses IA vs vehicle, not significant): observable decrease | growth plate thickness, medial minus lateral difference ([6]; higher dose IA): significantly reduced | collagen damage across the medial tibial plateau ([6]; lower and higher doses IA vs untreated controls): fewer areas with severe, marked and moderate degeneration | growth plate thickness, medial minus lateral difference ([6]; lower dose IA): reduced thickness of the growth plate, but not to the same extent as the higher dose | width of the cartilage affected by any degeneration ([6]; treated groups (IA) vs vehicle): improved | gait score Area Under the Curve (AUC) ([7]; higher dose IA): gait score being lower for both treated populations as compared to the untreated controls | mobility and gait (gait score) ([7]; higher or lower dose IA, approximately day 15 to day 28): improvement in mobility and gait | gait score Area Under the Curve (AUC) ([7]; lower dose IA): decreased gait score to a greater extent than the higher CNP dose | Total Joint Score without Femur ([8]; 105 μg IA): significant reduction | effects on histopathology lesions of medial meniscal tear-induced osteoarthritis ([8]; IA, Pro-Gly-CNP-37 35.5 and 105 μg, Gly-CNP-37 105 μg): significant beneficial effects
